Converted amounts (≈) assume the structure as drawn.
Columns and labels:
Epidermophyton floccosum = test: Antifungal activity against Epidermophyton floccosum.; type: functional
Aspergillus fumigatus = test: Antifungal activity measured against Aspergillus fumigatus; type: functional
Sporothrix schenckii = test: Antifungal activity measured against Sporothrix schenck ii.; type: functional
Microsporum canis = test: Antifungal activity against Microsporum canis; type: functional
Trichophyton benhamiae = test: Antifungal activity measured against Trichophyton mentagrophytes; type: functional, Arthroderma benhamiae
Candida parapsilosis = test: Antifungal activity against Candida parapsilosis.; type: functional; settings: Lodderomyces parapsilosis

Structure (SMILES)	MIC (Epidermophyton floccosum) [µg/mL]	MIC (Aspergillus fumigatus) [µg/mL]	MIC (Sporothrix schenckii) [µg/mL]	MIC (Microsporum canis) [µg/mL]	MIC (Trichophyton benhamiae) [µg/mL]	MIC (Candida parapsilosis) [µg/mL]
C/C(=C\c1ccccc1)CN(C)Cc1cccc2ccccc12	100 (≈ 332 µM)	> 100	100 (≈ 332 µM)	100 (≈ 332 µM)	12.5 (≈ 41.5 µM)	> 100
C[N+](C)(C/C=C/c1ccccc1)Cc1cccc2ccccc12.[I-]	> 100	> 100	> 100	> 100	25	> 100
C=CCN(C)Cc1cccc2ccccc12	> 100	> 100	> 100	> 100	> 100	
C/C(=C\CN(C)Cc1cccc2ccccc12)c1ccccc1	100 (≈ 332 µM)	> 100	100 (≈ 332 µM)	100 (≈ 332 µM)	50 (≈ 166 µM)	> 100
CN(C/C=C/c1ccccc1)Cc1coc2ccccc12	12.5 (≈ 45.1 µM)	> 100	100 (≈ 361 µM)	1.6 (≈ 5.77 µM)	1.6 (≈ 5.77 µM)	25 (≈ 90.1 µM)
CN(C/C=C/CO)Cc1cccc2ccccc12	> 100	> 100	> 100	> 100	> 100	> 100
C(=C\c1ccccc1)/CNCc1cccc2ccccc12 [N-DEALKYL NAFTIFINE]	100 (≈ 366 µM)	> 100	100 (≈ 366 µM)	100 (≈ 366 µM)	12.5 (≈ 45.7 µM)	> 100
CN(C/C=C/c1ccccc1)CC1=CCCc2ccccc21	≤ 1.6	> 100	12.5 (≈ 43.2 µM)	≤ 1.6	≤ 1.6	25 (≈ 86.4 µM)
C(=C\c1ccccc1)/CN(Cc1cccc2ccccc12)C1CCCCC1	> 100	> 100	> 100	> 100	> 100	> 100
COc1ccc(/C=C/CN(C)Cc2cccc3ccccc23)cc1	50 (≈ 158 µM)	> 100	> 100	50 (≈ 158 µM)	6.2 (≈ 19.5 µM)	> 100
COc1ccc2ccccc2c1CN(C)C/C=C/c1ccccc1	50 (≈ 158 µM)	> 100	> 100	100 (≈ 315 µM)	50 (≈ 158 µM)	> 100
CN(Cc1cccc2ccccc12)CC1CC1c1ccccc1 (stereo not given)	25 (≈ 82.9 µM)	> 100	100 (≈ 332 µM)	12.5 (≈ 41.5 µM)	12.5 (≈ 41.5 µM)	> 100
C(=C\c1ccccc1)/CN(Cc1ccccc1)Cc1cccc2ccccc12	> 100	> 100	> 100	> 100	> 100	> 100
CN(C/C=C/c1ccccc1)Cc1c2c(cc3c1CCC3)CCC2	3.1 (≈ 9.76 µM)	> 100	6.25 (≈ 19.7 µM)	1.6 (≈ 5.04 µM)	1.6 (≈ 5.04 µM)	> 100
CN(C/C=C/c1cccc2ccccc12)Cc1cccc2ccccc12	100 (≈ 296 µM)	> 100	100 (≈ 296 µM)	100 (≈ 296 µM)	1.6 (≈ 4.74 µM)	> 100
CN(CCC(O)c1ccccc1)Cc1cccc2ccccc12 (stereo not given)	> 100	> 100	> 100	> 100	> 100	> 100
CN(C/C=C/c1ccccc1)C(c1ccccc1)c1ccccc1	> 100	> 100	> 100	> 100	> 100	> 100
CN(CC(=O)c1ccccc1)Cc1cccc2ccccc12	12.5 (≈ 43.2 µM)	> 100	> 100	6.2 (≈ 21.4 µM)	3.1 (≈ 10.7 µM)	> 100

Structure (SMILES)	MIC (Epidermophyton floccosum) [µg/mL]	MIC (Aspergillus fumigatus) [µg/mL]	MIC (Sporothrix schenckii) [µg/mL]	MIC (Microsporum canis) [µg/mL]	MIC (Trichophyton benhamiae) [µg/mL]	MIC (Candida parapsilosis) [µg/mL]
CN(CCc1ccccc1)Cc1cccc2ccccc12	100 (≈ 363 µM)	> 100	> 100	100 (≈ 363 µM)	12.5 (≈ 45.4 µM)	> 100
C/C=C/CN(C)Cc1cccc2ccccc12	> 100	> 100	> 100	> 100	> 100	> 100
CN(C/C=C/c1ccccc1)Cc1cc2ccccc2c2ccccc12	100 (≈ 296 µM)	100 (≈ 296 µM)	100 (≈ 296 µM)	100 (≈ 296 µM)	100 (≈ 296 µM)	100 (≈ 296 µM)
CN(C/C=C/C1CC=CCC1)Cc1cccc2ccccc12 (stereo not given)	25 (≈ 85.8 µM)	> 100	100 (≈ 343 µM)	25 (≈ 85.8 µM)	25 (≈ 85.8 µM)	> 100
[O-][S+](C/C=C/c1ccccc1)Cc1cccc2ccccc12 (stereo not given)	> 100	> 100	> 100	> 100	> 100	> 100
CN(C/C=C/c1cccn1C)Cc1cccc2ccccc12	25 (≈ 86.1 µM)	> 100	50 (≈ 172 µM)	50 (≈ 172 µM)	25 (≈ 86.1 µM)	> 100
CN(C/C=C/C#N)Cc1cccc2ccccc12	100 (≈ 423 µM)	> 100	> 100	100 (≈ 423 µM)	100 (≈ 423 µM)	> 100
C(=C\c1ccccc1)/CN(C/C=C/c1ccccc1)Cc1cccc2ccccc12	> 100	> 100	> 100	> 100	> 100	> 100
CC(/C=C/c1ccccc1)N(C)Cc1cccc2ccccc12 (stereo not given)	12.5 (≈ 41.5 µM)	> 100	25 (≈ 82.9 µM)	25 (≈ 82.9 µM)	< 1.6	> 100
CN(C/C=C/c1ccco1)Cc1cccc2ccccc12	6.2 (≈ 22.4 µM)	> 100	100 (≈ 361 µM)	6.2 (≈ 22.4 µM)	< 1.6	> 100
C(=C\c1ccccc1)/CSCc1cccc2ccccc12	> 100	> 100	> 100	> 100	25 (≈ 86.1 µM)	> 100
CN(CCC(=O)c1ccccc1)Cc1cccc2ccccc12	6.2 (≈ 20.4 µM)	> 100	50 (≈ 165 µM)	6.2 (≈ 20.4 µM)	6.2 (≈ 20.4 µM)	> 100
CC(=O)N(C/C=C/c1ccccc1)Cc1cccc2ccccc12	> 100	> 100	> 100	> 100	> 100	> 100
CN(Cc1cccc2ccccc12)C(=O)/C=C/c1ccccc1	> 100	> 100	> 100	> 100	> 100	> 100
O=S(=O)(C/C=C/c1ccccc1)Cc1cccc2ccccc12	> 100	> 100	> 100	> 100	> 100	> 100
C(=C\c1ccccc1)/C=N/Cc1cccc2ccccc12	100 (≈ 369 µM)	> 100	100 (≈ 369 µM)	> 100	100 (≈ 369 µM)	> 100
C(=C\c1ccccc1)/CN(Cc1cccc2ccccc12)c1ccccc1	> 100	> 100	50 (≈ 143 µM)	> 100	> 100	> 100
C=CCN(C/C=C/c1ccccc1)Cc1cccc2ccccc12	3.1 (≈ 9.89 µM)	100 (≈ 319 µM)	6.25 (≈ 19.9 µM)	< 1.6	< 1.6	> 100
